Here are results for 2 compounds from patent US9629857B2, “Therapeutic uses of glutathione mimics” (BOARD OF TRUSTEES OF NORTHERN ILLINOIS UNIVERSITY, priority 2007, dated 2017).

The conditions of data set [1]: after first pass metabolism; cited from earlier work.
The next data set has as its system alkaline phosphatase. The data set can be described thus: Digestion of the phosphorylated prodrug with alkaline phosphatase, followed by 31P NMR. Type of data set: in vitro ADME. The conditions noted are these: 1 mg (10 units) alkaline phosphatase in water, stirred for 2 hours. How it is done: N-acetyl-S-phosphocysteine was synthesized according to the procedure followed by Binkely (1954). N-acetyl cysteine (0.5 g) was dissolved in 8 mL of distilled water in an ice bath. The NAC solution was then treated with 0.2 mL of phosphorus oxychloride and with sodium hydroxide to maintain the basic pH of 11. The resulting white solid was dried and re-dissolved in deuterium oxide for ^31P, ^13C and ^1H NMR analysis. After analysis, the sample was dried, re-suspended in water, and treated with 1 mg (10 units) of alkaline phosphatase, and stirred for 2 hours. The solution was dried and resuspended in deuterium oxide for NMR analysis.
Synthesis of ester cysteine was followed according to the procedure as follows. NAC (0.2 g) was dissolved in 7 mL of ethanol, 2 mL of concentrated hydrochloric acid and stirred at room temperature for 1 hour. The reaction mixture was refluxed for 1 hour at 60° C. The sample was then dried and resuspended in acetonitrile for ESI-MS analysis (same instrument settings as described for analysis of HIDD). The acid protected sample was phosphorylated with POCL3, and sodium hydroxide dried and resuspended in deuterium oxide for NMR analysis. After analysis, the sample was dried, resuspended in water, treated with 1 mg (10 units) of alkaline phosphatase and stirred for 2 hours. […]
The ester NAC was synthesized according to the procedure as follows and analyzed with ESI-MS. […]

As to `CC(=O)N[C@@H](CS)C(=O)O` [NAC, N-acetyl cysteine], the “presence of free drug in the systemic circulation” value in data set [1] is reported as “around 9%”.

For the compound `CC(=O)N[C@@H](CSP(=O)(O)O)C(=O)O` [phosphorylated NAC, N-acetyl-S-phosphocysteine], the “cleavage of S—P linkage on digestion with alkaline phosphatase (31P NMR)” value with alkaline phosphatase is “hydrolyzed with alkaline phosphatase”.
